The text below walks through data of ChEMBL document CHEMBL6109109, “Fatty acid binding protein 5 inhibitors as novel anticancer agents against metastatic castration-resistant prostate cancer” (Bioorg Med Chem, 2025).

The experiment relates to PC-3. Briefly: Synergistic anticancer activity against human PC-3 cells assessed as cell growth inhibition at […] measured after 72 hrs in presence of 0.001 uM of topotecan by MTT assay relative to control. The class given is functional. The settings on record: dose 2.5 µM, read-out: GI.

For the molecule `COc1ccccc1[C@H]1[C@H](C(=O)O)[C@H](c2ccccc2OC)[C@H]1C(=O)Oc1cc(-c2ccc3c(c2)OCO3)ccc1-c1ccccc1`, the inhibition of growth at […] was determined as 34.3%.
